Results on 22 compounds are retold here after patent publication US20240174662A1, “SMALL MOLECULE INHIBITORS OF SALT INDUCIBLE KINASES” (Janssen Biotech, Inc., priority 2021, published 2024).

pIC50: −log10 of the molar value. Bounds are passed on as bounds.

SIK2, sequence (Q9H0K1 whole entry, species assumed): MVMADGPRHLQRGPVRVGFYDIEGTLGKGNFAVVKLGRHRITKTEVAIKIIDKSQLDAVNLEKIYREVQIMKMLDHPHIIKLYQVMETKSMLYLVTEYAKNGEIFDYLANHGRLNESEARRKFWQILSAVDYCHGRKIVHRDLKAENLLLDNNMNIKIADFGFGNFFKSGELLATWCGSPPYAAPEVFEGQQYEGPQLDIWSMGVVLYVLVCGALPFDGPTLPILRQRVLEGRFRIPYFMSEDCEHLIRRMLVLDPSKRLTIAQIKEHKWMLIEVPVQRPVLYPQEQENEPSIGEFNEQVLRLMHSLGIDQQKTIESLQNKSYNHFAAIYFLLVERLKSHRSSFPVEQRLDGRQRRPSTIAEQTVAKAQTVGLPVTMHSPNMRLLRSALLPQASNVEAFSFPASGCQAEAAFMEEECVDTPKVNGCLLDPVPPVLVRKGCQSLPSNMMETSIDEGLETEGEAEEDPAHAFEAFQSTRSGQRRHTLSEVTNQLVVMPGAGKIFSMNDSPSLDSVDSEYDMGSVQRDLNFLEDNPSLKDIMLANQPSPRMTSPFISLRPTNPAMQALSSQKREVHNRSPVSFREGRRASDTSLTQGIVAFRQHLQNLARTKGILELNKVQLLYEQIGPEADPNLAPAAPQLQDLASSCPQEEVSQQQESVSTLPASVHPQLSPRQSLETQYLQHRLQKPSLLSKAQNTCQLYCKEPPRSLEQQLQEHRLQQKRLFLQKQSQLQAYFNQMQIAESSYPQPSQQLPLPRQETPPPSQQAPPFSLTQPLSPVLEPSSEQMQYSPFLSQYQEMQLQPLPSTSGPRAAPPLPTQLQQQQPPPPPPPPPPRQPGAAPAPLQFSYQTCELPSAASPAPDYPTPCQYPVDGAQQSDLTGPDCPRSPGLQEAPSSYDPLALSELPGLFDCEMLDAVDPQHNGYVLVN

This test concerns the target SIK2 (Homo sapiens (Human), UniProt Q9H0K1). The experiment in a line: SIK2 Enzymatic Assay Version 2 (High ATP). It counts as biochemical. Conditions: 3 mM ATP and 200 μM HDAC5tide final, ADP-Glo Max luminescence. An outline of the steps:
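Luminescent ADP-Glo Max read-out: depletion reagent 2 h, then detection reagent 1 h. Before the reaction, compounds were incubated 30 min with enzyme added at 6 nM (twice final concentration), with all steps at room temperature.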
(In general: In ADP-Glo the light output rises with the ADP produced.)
As to `Cc1onc(OC[C@](C)(c2ccccc2)N(C)C)c1-c1ccn2nc(NC(=O)C3CC3)cc2c1` [Example 226, N-[5-[3-[(2S)-2-(dimethylamino)-2-phenyl-propoxy]-5-methyl-isoxazol-4-yl]pyrazolo[1,5-a]pyridin-2-yl]cyclopropanecarboxamide], the pIC50 was 7.89.

In turn, `Cc1onc(OC[C@@H]2COCCN2)c1-c1ccn2nc(NC(=O)C3CC3)cc2c1` [Example 497] showed a pIC50 of 5.60.

For `COC1(COc2cnn(C(F)F)c2-c2ccn3nc(Nc4cc(C)nc(C)n4)cc3c2)CCNC1` (racemic) [Example 100, (RS)-5-[2-(difluoromethyl)-4-[(3-methoxypyrrolidin-3-yl)methoxy]pyrazol-3-yl]-N-(2,6-dimethylpyrimidin-4-yl)pyrazolo[1,5-a]pyridin-2-amine], the pIC50 was 7.91.

As to `Cn1ncc(OCC2(N)CC2)c1-c1ccn2nc(NC(=O)C3CC3)cc2c1` [Example 506, N-[5-[4-[(1-aminocyclopropyl)methoxy]-2-methyl-pyrazol-3-yl]pyrazolo[1,5-a]pyridin-2-yl]cyclopropanecarboxamide], the negative-log IC50 (pIC50) is 6.46.

The compound `[2H]C([2H])([2H])N1CCC[C@@H]1COc1cnn(C)c1-c1ccn2nc(NC(=O)C3CC3)cc2c1` [Example 249, N-[5-[2-methyl-4-[[(2R)-1-(trideuteriomethyl)pyrrolidin-2-yl]methoxy]pyrazol-3-yl]pyrazolo[1,5-a]pyridin-2-yl]cyclopropanecarboxamide] had a pIC50 of 7.59.

As to `Cc1onc(OC[C@H]2CNCC(C)(C)O2)c1-c1ccn2nc(NC(=O)C3CC3)cc2c1` [Example 86, N-[5-[3-[[(2R)-6,6-dimethylmorpholin-2-yl]methoxy]-5-methyl-isoxazol-4-yl]pyrazolo[1,5-a]pyridin-2-yl]cyclopropanecarboxamide], the pIC50 is 8.89.

`CCN1CC[C@@H]1COc1cnn(C)c1-c1ccn2nc(Nc3cc(C)nc(C(F)F)n3)cc2c1` [Example 103, N-[2-(difluoromethyl)-6-methyl-pyrimidin-4-yl]-5-[4-[[(2R)-1-ethylazetidin-2-yl]methoxy]-2-methyl-pyrazol-3-yl]pyrazolo[1,5-a]pyridin-2-amine] gave a pIC50 above 9.07.

Compound `CCN1CC[C@@H]1COc1cnn(C)c1-c1ccn2nc(Nc3cc(C(F)(F)F)ncn3)cc2c1` [Example 164, 5-[4-[[(2R)-1-ethylazetidin-2-yl]methoxy]-2-methyl-pyrazol-3-yl]-N-[6-(trifluoromethyl)pyrimidin-4-yl]pyrazolo[1,5-a]pyridin-2-amine] gave a pIC50 of 8.82.

With `CN1CC[C@H](Oc2cnn(C)c2-c2ccn3nc(NC(=O)C4CC4)cc3c2)C1` [Example 105, N-[5-[2-methyl-4-[(3S)-1-methylpyrrolidin-3-yl]oxy-pyrazol-3-yl]pyrazolo[1,5-a]pyridin-2-yl]cyclopropanecarboxamide], the pIC50 is 7.37.

Consider `Cn1ncc(OC[C@@]23CN[C@@H](CO2)C3)c1-c1ccn2nc(NC(=O)C3CC3)cc2c1` [Example 234, N-[5-[2-methyl-4-[[(1R,4R)-5-oxa-2-azabicyclo[2.2.1]heptan-4-yl]methoxy]pyrazol-3-yl]pyrazolo[1,5-a]pyridin-2-yl]cyclopropanecarboxamide], for which the pIC50 is 8.96.

As to `Cc1ncc(Nc2cc3cc(-c4c(OC[C@H]5CCN5C[C@H](C)O)cnn4C)ccn3n2)nc1C` [Example 297, (2S)-1-[(2R)-2-[[5-[2-[(5,6-dimethylpyrazin-2-yl)amino]pyrazolo[1,5-a]pyridin-5-yl]-1-methyl-pyrazol-4-yl]oxymethyl]azetidin-1-yl]propan-2-ol], the pIC50 was above 9.07.

For the compound `Cn1ncc(COC2(C(F)(F)F)CNC2)c1-c1ccn2nc(NC(=O)C3CC3)cc2c1` [Example 186, N-[5-[2-methyl-4-[[3-(trifluoromethyl)azetidin-3-yl]oxymethyl]pyrazol-3-yl]pyrazolo[1,5-a]pyridin-2-yl]cyclopropanecarboxamide], the pIC50 was 8.14.

Regarding `Cn1ncc(OC[C@H]2CCN2CCF)c1-c1ccn2nc(NC(=O)C3CC3)cc2c1` [Example 241, N-[5-[4-[[(2R)-1-(2-fluoroethyl)azetidin-2-yl]methoxy]-2-methyl-pyrazol-3-yl]pyrazolo[1,5-a]pyridin-2-yl]cyclopropanecarboxamide], the pIC50 is 8.46. This pIC50 lies 0.32 log units higher than the previous one.

For `Cc1onc(OC[C@H]2CN(C)CC(C)(C)O2)c1-c1ccn2nc(NC(=O)C3CC3)cc2c1` [Example 214, N-[5-[5-methyl-3-[[(2R)-4,6,6-trimethylmorpholin-2-yl]methoxy]isoxazol-4-yl]pyrazolo[1,5-a]pyridin-2-yl]cyclopropanecarboxamide], the pIC50 is 7.80.

Take `Cn1ncc(OC[C@H]2C[C@H](N)C2)c1-c1ccn2nc(NC(=O)C3CC3)cc2c1` [Example 334, N-[5-[4-[(3-aminocyclobutyl)methoxy]-2-methyl-pyrazol-3-yl]pyrazolo[1,5-a]pyridin-2-yl]cyclopropanecarboxamide]: the pIC50 was 7.26.

As to `Cc1cnc(Nc2cc3cc(-c4c(OC[C@H]5CCN5C)cnn4C)ccn3n2)cn1` [Example 49, 5-[2-methyl-4-[[(2R)-1-methylazetidin-2-yl]methoxy]pyrazol-3-yl]-N-(5-methylpyrazin-2-yl)pyrazolo[1,5-a]pyridin-2-amine], the pIC50 is 8.28.

Turning to `CN1C[C@@H](F)[C@@H](Oc2cnn(C)c2-c2ccn3nc(NC(=O)C4CC4)cc3c2)C1` [Example 499], the pIC50 was 6.14. Against the preceding compound, the pIC50 is 2.14 log units lower.

For `CN1CC[C@@H](COc2cnn(CC3CC3)c2-c2ccn3nc(NC(=O)C4CC4)cc3c2)C1` [Example 489, N-[5-[2-(cyclopropylmethyl)-4-[[(3R)-1-methylpyrrolidin-3-yl]methoxy]pyrazol-3-yl]pyrazolo[1,5-a]pyridin-2-yl]cyclopropanecarboxamide], the pIC50 is 4.87.

Turning to `Cn1ncc(O[C@@H]2C[C@H]3COC[C@@H](C2)N3)c1-c1ccn2nc(NC(=O)C3CC3)cc2c1` [Example 43, exo-N-[5-[2-methyl-4-[[(1R,5S)-3-oxa-9-azabicyclo[3.3.1]nonan-7-yl]oxy]pyrazol-3-yl]pyrazolo[1,5-a]pyridin-2-yl]cyclopropanecarboxamide], the pIC50 was 7.76.

In the case of `CO[C@H]1CNC[C@@H]1COc1cnn(C)c1-c1ccn2nc(NC(=O)C3CC3)cc2c1` [Example 351, N-[5-[4-[[(3R,4R)-4-methoxypyrrolidin-3-yl]methoxy]-2-methyl-pyrazol-3-yl]pyrazolo[1,5-a]pyridin-2-yl]cyclopropanecarboxamide], the pIC50 is 7.28.

In turn, `CN1CC[C@@H]1COc1cnn(C)c1-c1ccn2nc(Nc3ccc(C(=O)NCC(C)(C)C#N)cn3)cc2c1` [Example 36, N-(2-cyano-2-methyl-propyl)-6-[[5-[2-methyl-4-[[(2R)-1-methylazetidin-2-yl]methoxy]pyrazol-3-yl]pyrazolo[1,5-a]pyridin-2-yl]amino]pyridine-3-carboxamide] showed a pIC50 of 7.99. Against the preceding compound, the pIC50 is 0.71 log units higher.

`Cc1cnc(Nc2cc3cc(-c4c(O[C@H]5CCN(C)C5)cnn4C)ccn3n2)cn1` [Example 454, 5-[2-methyl-4-[(3S)-1-methylpyrrolidin-3-yl]oxy-pyrazol-3-yl]-N-(5-methylpyrazin-2-yl)pyrazolo[1,5-a]pyridin-2-amine] had a pIC50 of 7.09. This pIC50 lies 0.90 log units lower than the previous one.

A word on the pIC50: it is −log10 of the IC50, conventionally taken in molar units. A high value points to a small IC50.
